From patent publication US4937390A, “Compound useful for the production of 3-deoxy-3-fluoro-myo-inositol” (University of Pittsburgh, priority 1989, dated 1990)

System: PC12 cells
Assay: Uptake and incorporation of [3H]myo-inositol into PC12 cells following treatment with inositol analogs
Format: cell-based, rat
Details: for Bound [3H]myo-inositol (incorporated into membranes) / Free [3H]myo-inositol (cytoplasm): one hour [3H]myo-inositol
Experimental: Since myo-inositol must be incorporated into the cellular plasma membranes in order for it to serve its role as a second messenger, we therefore verified the ability of the 1- and 3-fluoro-myo-inositol analogs to perturb the incorporation of myo-inositol into cellular plasma membranes by the enzyme […] CDP-diacylglycerol-inositol phosphatidylytransferase (phosphatidylinositolsynthesis).
These tests were conducted by treating cells for either 1, 3, 5, or 7 days with the myo-inositol analogs, followed by a brief exposure to radiolabeled myo-inositol ([^3 H]myo-inositol). The extent of incorporation of tritiated myo-inositol would, therefore, reflect the extent to which phosphatidylinositol and its phosphorylated analogs are deficient in the cellular plasma membranes.
Cells were grown as described hereinabove. Twenty-four hours after plating, the medium was changed and cells were exposed to either inositol free medium (Control 2) or medium containing either the 1- or the 3-fluoro-myo-inositol analog. At four different time points --1, 3, 5, and 7 days--cells were tested for their ability to incorporate radiolabeled [^3 H]myo-inositol. This test was conducted by removing the medium and replacing it with RPMI medium (both myo-inositol and serum free) containing only [^3 H]myo-inositol. The cells were exposed to this medium for a period of one hour, following which they were washed three times with phosphate-buffered saline containing excess unlabeled myo-inositol (10 mM). Cells were lysed by treatment with trichloroacetic acid (TCA) and sonicated to insure complete disruption. The cellular homogenate was then collected and spun in a microfuge tube at 12,000 r.p.m. for 15 min. Samples from both the pellet and supernatant were then obtained and the levels of radioactivity in each were determined. Radioactivity in the supernatant corresponded to the amount of free [^3 H]myo-inositol in the cytoplasm of the cell, whereas the radioactivity present in the TCA-precipated pellet represented [^3 H]myo-inositol incorporated into the cellular plasma membranes.
Cells were treated for the indicated time periods with the inositol
analogs, and then exposed for one hour to [^3 H]myoinositol. Numbers
represent DPM/10^6 cells.

Structure (SMILES)	Bound [3H]myo-inositol (incorporated into membranes) (Day 1 of treatment)	Free [3H]myo-inositol (cytoplasm) (Day 1 of treatment)	Bound [3H]myo-inositol (incorporated into membranes) (Day 3 of treatment)	Free [3H]myo-inositol (cytoplasm) (Day 3 of treatment)	Bound [3H]myo-inositol (incorporated into membranes) (Day 5 of treatment)	Free [3H]myo-inositol (cytoplasm) (Day 5 of treatment)	Bound [3H]myo-inositol (incorporated into membranes) (Day 7 of treatment)	Free [3H]myo-inositol (cytoplasm) (Day 7 of treatment)	level of radioactivity-labeled myo-inositol incorporated into the cellular plasma membranes
O[C@@H]1[C@@H](O)[C@@H](O)[C@@H](F)[C@H](O)[C@H]1O [1-deoxy-1-fluoro-myo-inositol]	392 ± 16 DPM/10^6 cells	8365 ± 787 DPM/10^6 cells	4614 ± 141 DPM/10^6 cells	4751 ± 291 DPM/10^6 cells	2143 ± 314 DPM/10^6 cells	4295 ± 627 DPM/10^6 cells	3726 ± 588 DPM/10^6 cells	7569 ± 757 DPM/10^6 cells	–
O[C@@H]1[C@@H](O)[C@H](O)[C@@H](F)[C@@H](O)[C@H]1O [3-deoxy-3-fluoro-myo-inositol]	354 ± 10 DPM/10^6 cells	3326 ± 253 DPM/10^6 cells	761 ± 42 DPM/10^6 cells	2929 ± 189 DPM/10^6 cells	414 ± 52 DPM/10^6 cells	2900 ± 383 DPM/10^6 cells	676 ± 113 DPM/10^6 cells	4095 ± 161 DPM/10^6 cells	quite low
